Measurements as given in patent publication US11773086B2, “Fungal modulators” (TRUSTEES OF BOSTON UNIVERSITY, priority 2020, dated 2023).

Experiments:
[1] = tested on: C. albicans CaCi-17 efflux; test: Nile red accumulation (flow cytometry) in CaCi-17; type: cell-based, Candida albicans; conditions: CaCi-17 and its cdr1Δ/cdr1Δ mutant
Method: FIG. 9A depicts checkerboard assays as described in FIG. 2B and performed with isolates of C. albicans. CaCi-2 and CaCi-17 represent early and late clinical isolates in which FLC resistance evolved over time. Growth was measured at 24 hours using OD600 and normalized to a no drug control well (see color bar). FIG. 9B depicts dose response assays conducted in YPD medium with a C. albicans parental strain, and strains with gain of function mutations in TAC1 as indicated. FLC was tittered in a two-fold dilution on the x-axis in the absence and presence of 50 μM azoffluxin. Growth was measured at 24 hours using OD600 and normalized to a no drug control well (see color bar). […] FIGS. 9D and 9E depict the intracellular concentrations of FLC and azoffluxin measured after treatment (combo treatment at 6.25 μM azoffluxin and 8 μg/mL FLC) for 1 hour by LC-MS. […] Significance was determined by an unpaired student t-test of each combination to the respective compound alone treatment, (*) indicates a p-value<0.05 and (**) indicates a p-value<0.01.
Cellular efflux was determined by measuring Nile red accumulation, as previously described. […] To quantify fluorescence, a CytoFlex Flow Cytometer (Beckman Coulter) was used. […] Each sample was run using the CytExpert Software until ˜20,000 events had been recorded. […]

C. auris = test: Sterol composition by LC-MS; type: cell-based, Candida auris; conditions: 18 hours
Excerpt: FIGS. 3A-3B, and 4A-4B illustrate azoffluxin increases fluconazole (FLC) bioavailability by inhibiting Cdr1-mediated efflux in C. auris, as described above. FIG. 3A depicts the relative abundance of specific sterols determined in C. auris after an 18-hour treatment with the respective compounds (⋅ indicates combo treatment concentrations) using LC-MS. Values are plotted relative to the internal standard of cholesterol and error bars indicate standard deviation between technical triplicates. Significance was determined by an unpaired student t-test of each condition to untreated, (*) indicates a p-value<0.05 and (**) indicates a p-value<0.01. FIG. 3B depicts the intracellular concentrations of FLC and azoffluxin measured after treatment for 1 hour (conditions as in FIG. 3A) Error bars indicate standard deviation between technical triplicates. Significance was determined by an unpaired student t-test, (**) indicates a p-value<0.01. FIG. 4A depicts the quantified relative expression of a panel of putative efflux pumps in C. auris Ci6684. Expression of CDR1 (B9J08_000164), MDR1 (B9J08_003981), CDR4-1 (B9J08_000479), CDR4-2 (B9J08_002451), SNQ2-1 (B9J08_001125), and SNQ2-2 (B9J08_004452) was measured by RT-qPCR. […] FIG. 4B depicts expression of CDR1 (B9J08_000164) and CDR4-1 (B9J08_000479) measured by quantitative real-time PCR (RT-qPCR). […]

In the case of `C=C(C)C[C@@H](O)COc1cc2c(cc1C1(c3cc4c(cc3OC[C@H](O)CC(=C)C)OCO4)C(=O)Nc3cc(F)ccc31)OCO2` [CMLD012336], the Nile red accumulation [1] is reported as “increase in Nile red accumulation”, the “increase in 14-α-methyl-3,6-diol” value (C. auris; azoffluxin + low fluconazole vs low fluconazole alone) is reported as 4 fold and the “abundance of ergosterol, lanosterol, 14-α-methyl-3,6-diol” value (C. auris; azoffluxin alone vs untreated) is reported as “No significant increases”.
